Here are results for eleven molecules from ChEMBL document CHEMBL1143950, “Antifungal and cytotoxic activities of some N-substituted aniline derivatives bearing a hetaryl fragment” (Bioorg Med Chem, 2008).

Structures are written as SMILES. Values after ≈ are worked out from the molar mass of the structure shown. Bounds are passed on as bounds.

What all share (type): functional
One test deals with Aspergillus flavus. Briefly: Antifungal activity against Aspergillus flavus ATCC 9170 by micro-broth dilution method.
The next test has as its system Candida albicans. In words: Antifungal activity against Candida albicans ATCC 10231 by micro-broth dilution method.
Test [1] relates to Trichophyton mentagrophytes. Briefly: Antifungal activity against Trichophyton mentagrophytes ATCC 9972 by micro-broth dilution method.
For a further test, the system named is Saccharomyces cerevisiae. In words: Antifungal activity against Saccharomyces cerevisiae ATCC 9763 by microbroth dilution method.
The next test deals with Cryptococcus neoformans. In words: Antifungal activity against Cryptococcus neoformans ATCC 32264 by microbroth dilution method.
The next test concerns Candida tropicalis. In words: Antifungal activity against Candida tropicalis C131 by micro-broth dilution method.
The test system of the next test is Trichophyton rubrum. In words: Antifungal activity against Trichophyton rubrum C113 by microbroth dilution method.
Another test has as its system Aspergillus fumigatus. Briefly: Antifungal activity against Aspergillus fumigatus ATCC 26934 by micro-broth dilution method.
The subject of a further test is Aspergillus niger. In words: Antifungal activity against Aspergillus niger ATCC 9029 by micro-broth dilution method.
In a further test the test system is Nannizzia gypsea. Briefly: Antifungal activity against Microsporum gypseum C115 by microbroth dilution method.

On to `COc1ccc(CNc2ccccc2)cc1`, for which the MIC in the test with Aspergillus flavus is more than 250 µg/mL; against Candida albicans it was more than 250 µg/mL; in test [1] it was 25 µg/mL (≈ 117 µM); in the test with Saccharomyces cerevisiae it was more than 250 µg/mL; with Cryptococcus neoformans, more than 250 µg/mL; with Candida tropicalis, more than 250 µg/mL. In addition, the MIC against Trichophyton rubrum is 25 µg/mL (≈ 117 µM); in the test on Aspergillus fumigatus, more than 250 µg/mL; in the test on Aspergillus niger, more than 250 µg/mL; against Nannizzia gypsea it was 25 µg/mL (≈ 117 µM).

Turning to `COc1ccc(CNc2cccc([N+](=O)[O-])c2)cc1`, the MIC (with Aspergillus flavus; in the test with Candida albicans; in test [1]; against Saccharomyces cerevisiae; in the test on Cryptococcus neoformans; in the test with Candida tropicalis) was more than 250 µg/mL in each case. Moreover, the MIC in the test on Trichophyton rubrum, with Aspergillus fumigatus, against Aspergillus niger and against Nannizzia gypsea was more than 250 µg/mL each time.

In the case of `O=[N+]([O-])c1cccc(NCc2ccccn2)c1`, the MIC amounted to 100 µg/mL (≈ 436 µM) in the test with Aspergillus flavus; 100 µg/mL (≈ 436 µM) against Candida albicans; 50 µg/mL (≈ 218 µM) in test [1]; 100 µg/mL (≈ 436 µM) in the test with Saccharomyces cerevisiae; 50 µg/mL (≈ 218 µM) with Cryptococcus neoformans; 100 µg/mL (≈ 436 µM) in the test with Candida tropicalis. The MIC with Trichophyton rubrum was determined as 50 µg/mL (≈ 218 µM); in the test on Aspergillus fumigatus, 200 µg/mL (≈ 872 µM); against Aspergillus niger, 200 µg/mL (≈ 872 µM); in the test with Nannizzia gypsea it was 50 µg/mL (≈ 218 µM).

On to `Clc1ccc(NCc2cccs2)cc1`, for which the MIC is 250 µg/mL (≈ 1120 µM) in the test on Aspergillus flavus; 62.5 µg/mL (≈ 279 µM) against Candida albicans; 62.5 µg/mL (≈ 279 µM) in test [1]; 250 µg/mL (≈ 1120 µM) against Saccharomyces cerevisiae; 62.5 µg/mL (≈ 279 µM) in the test on Cryptococcus neoformans; 62.5 µg/mL (≈ 279 µM) against Candida tropicalis. Moreover, the MIC against Trichophyton rubrum worked out at 62.5 µg/mL (≈ 279 µM); in the test on Aspergillus fumigatus, 125 µg/mL (≈ 559 µM); against Aspergillus niger, 250 µg/mL (≈ 1120 µM); in the test with Nannizzia gypsea, 62.5 µg/mL (≈ 279 µM).

Turning to `C=CCC(Nc1ccc(C)cc1)c1ccco1` (stereo not given), the MIC (with Aspergillus flavus; against Candida albicans; in test [1]; in the test with Saccharomyces cerevisiae; against Cryptococcus neoformans; in the test with Candida tropicalis) was more than 250 µg/mL in each case. Moreover, the minimum inhibitory concentration (MIC) against Trichophyton rubrum, with Aspergillus fumigatus, in the test on Aspergillus niger and in the test with Nannizzia gypsea was more than 250 µg/mL throughout.

With `Cc1ccc(NCc2cccc(N)c2)cc1`, the MIC against Aspergillus flavus worked out at 25 µg/mL (≈ 118 µM); in the test on Candida albicans, 50 µg/mL (≈ 236 µM); in test [1], 100 µg/mL (≈ 471 µM); in the test on Saccharomyces cerevisiae, 100 µg/mL (≈ 471 µM); against Cryptococcus neoformans it was 100 µg/mL (≈ 471 µM); in the test with Candida tropicalis it was 50 µg/mL (≈ 236 µM). Besides, the MIC came out at 100 µg/mL (≈ 471 µM) in the test with Trichophyton rubrum, 25 µg/mL (≈ 118 µM) against Aspergillus fumigatus, 12.5 µg/mL (≈ 58.9 µM) against Aspergillus niger and 100 µg/mL (≈ 471 µM) against Nannizzia gypsea.

With `Clc1ccc(NCc2ccsc2)cc1`, the MIC was 250 µg/mL (≈ 1120 µM) in the test with Aspergillus flavus; 62.5 µg/mL (≈ 279 µM) in the test with Candida albicans; 62.5 µg/mL (≈ 279 µM) in test [1]; 250 µg/mL (≈ 1120 µM) against Saccharomyces cerevisiae; 62.5 µg/mL (≈ 279 µM) in the test with Cryptococcus neoformans; 62.5 µg/mL (≈ 279 µM) against Candida tropicalis. Moreover, the MIC in the test with Trichophyton rubrum came out at 62.5 µg/mL (≈ 279 µM); against Aspergillus fumigatus, 125 µg/mL (≈ 559 µM); with Aspergillus niger, 250 µg/mL (≈ 1120 µM); in the test on Nannizzia gypsea it was 62.5 µg/mL (≈ 279 µM).

As to `C=CCC(Nc1ccccc1)c1ccoc1` (stereo not given), the MIC in the test with Aspergillus flavus was more than 250 µg/mL; in the test with Candida albicans, more than 250 µg/mL; in test [1] it was 62.5 µg/mL (≈ 293 µM); against Saccharomyces cerevisiae it was more than 250 µg/mL; in the test on Cryptococcus neoformans it was 250 µg/mL (≈ 1170 µM); with Candida tropicalis it was more than 250 µg/mL. In addition, the MIC in the test on Trichophyton rubrum is 62.5 µg/mL (≈ 293 µM); in the test on Aspergillus fumigatus, more than 250 µg/mL; in the test on Aspergillus niger, more than 250 µg/mL; in the test with Nannizzia gypsea, 125 µg/mL (≈ 586 µM).

On to `C=CCC(Nc1ccc(Cl)c(Cl)c1)c1ccco1` (stereo not given), for which the MIC (against Aspergillus flavus; in the test with Candida albicans; in test [1]; in the test with Saccharomyces cerevisiae; against Cryptococcus neoformans; in the test on Candida tropicalis) was more than 250 µg/mL each time. For the same molecule, the MIC in the test on Trichophyton rubrum, in the test on Aspergillus fumigatus, with Aspergillus niger and against Nannizzia gypsea was more than 250 µg/mL in each case.

As to `Clc1ccc(NCc2ccoc2)cc1`, the MIC in the test on Aspergillus flavus amounted to 62.5 µg/mL (≈ 301 µM); against Candida albicans, 125 µg/mL (≈ 602 µM); in test [1], 62.5 µg/mL (≈ 301 µM); against Saccharomyces cerevisiae it was 125 µg/mL (≈ 602 µM); in the test on Cryptococcus neoformans it was 62.5 µg/mL (≈ 301 µM); in the test with Candida tropicalis it was 125 µg/mL (≈ 602 µM). Besides, the MIC against Trichophyton rubrum stood at 62.5 µg/mL (≈ 301 µM); against Aspergillus fumigatus, 62.5 µg/mL (≈ 301 µM); in the test with Aspergillus niger, 62.5 µg/mL (≈ 301 µM); with Nannizzia gypsea, 125 µg/mL (≈ 602 µM).

With `Oc1ccc(CNc2ccccc2)cc1`, the MIC was more than 250 µg/mL against Aspergillus flavus; more than 250 µg/mL in the test on Candida albicans; 25 µg/mL (≈ 125 µM) in test [1]; 250 µg/mL (≈ 1250 µM) in the test on Saccharomyces cerevisiae; more than 250 µg/mL against Cryptococcus neoformans; 250 µg/mL (≈ 1250 µM) with Candida tropicalis. In addition, the MIC is 25 µg/mL (≈ 125 µM) in the test with Trichophyton rubrum, more than 250 µg/mL in the test on Aspergillus fumigatus, more than 250 µg/mL against Aspergillus niger and 50 µg/mL (≈ 251 µM) in the test with Nannizzia gypsea.
